Results published in patent publication US8574831B2, “Mutational profiles in HIV-1 reverse transcriptase correlated with phenotypic drug resistance” (Virco N.V., priority 2000, dated 2013).

Test system: HIV with mutations in the HIV protease sequence
Assay: Phenotypic fold resistance to protease inhibitors, protease mutations 84A/84L/84C/54M/54L/54V in a background (Examples 8-13)
Assay type: cell-based, HIV-1
Summary of the method: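 Recombinant-virus phenotyping: patient-derived PR/RT sequences amplified by PCR and recombined in CD4+ T cells into an HXB2 proviral clone deleted for those sequences. Chimeric viruses grown across drug concentrations; IC50 determined, and fold-resistance expressed as IC50 ratio versus wild-type susceptible laboratory HIV-1 tested in parallel.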

CC(C)(C)NC(=O)[C@@H]1C[C@@H]2CCCC[C@@H]2CN1C[C@@H](O)[C@H](Cc1ccccc1)NC(=O)[C@H](CC(N)=O)NC(=O)c1ccc2ccccc2n1 [Saquinavir, saquinavir]
Fold change in IC50 (Table 12, V055199, genotype 10I + 33F + 54M + 90M): 5.6 fold
Fold change in IC50 (Table 13, V19263, genotype 77I): 0.3 fold
Fold change in IC50 (Table 13, V20160, genotype WT): 0.9 fold
Fold change in IC50 (Table 13, V021667, genotype 10I): 0.9 fold
Fold change in IC50 (Table 13, V030496, genotype 10I + 77I): 0.3 fold
Fold change in IC50 (Table 13, V048868, genotype 10I + 54L + 71V + 77I + 90M): 16.5 fold
Fold change in IC50 (Table 13, V048874, genotype 10I + 33F + 54L + 71V + 77I + 90M): 4.6 fold
Fold change in IC50 (Table 13, V048875, genotype 10I + 33F + 54L + 71V + 77I + 90M): 12.0 fold
Fold change in IC50 (Table 13, V048877, genotype 10I + 33F + 77I + 90M): 1.5 fold
Fold change in IC50 (Table 13, V048880, genotype 10I + 33F + 77I + 90M): 2.7 fold
Fold change in IC50 (Table 13, V052940, genotype 71V): 0.8 fold
Fold change in IC50 (Table 13, V052942, genotype 10I + 71V): 0.8 fold
Fold change in IC50 (Table 13, V052943, genotype 10I + 90M): 1.1 fold
Fold change in IC50 (Table 13, V052944, genotype 10I + 90M): 0.7 fold
Fold change in IC50 (Table 13, V052945, genotype 77I + 90M): 1.4 fold
Fold change in IC50 (Table 13, V052946, genotype 71V + 90M): 1.4 fold
Fold change in IC50 (Table 13, V052947, genotype 10I + 77I + 90M): 3.9 fold
Fold change in IC50 (Table 13, V052948, genotype 10I + 71V + 90M): 4.8 fold
Fold change in IC50 (Table 13, V052949, genotype 10I + 71V + 77I + 90M): 2.1 fold
Fold change in IC50 (Table 13, V052950, genotype 33F): 1.2 fold
Fold change in IC50 (Table 13, V052951, genotype 33F + 77I): 0.4 fold
Fold change in IC50 (Table 13, V052953, genotype 10I + 33F + 77I): 1.2 fold
Fold change in IC50 (Table 13, V052954, genotype 33F + 77I + 90M): 1.7 fold
Fold change in IC50 (Table 13, V052955, genotype 33F + 71V + 90M): 20.4 fold
Fold change in IC50 (Table 13, V052968, genotype 10L/I + 33F/L + 54L + 77I): 1.5 fold
Fold change in IC50 (Table 13, V052969, genotype 10I + 33F + 54L + 90M): 1.4 fold
Fold change in IC50 (Table 13, V052970, genotype 54L): 0.7 fold
Fold change in IC50 (Table 13, V052971, genotype 10I + 54L): 0.7 fold
Fold change in IC50 (Table 13, V052972, genotype 54L + 77I): 1.0 fold
Fold change in IC50 (Table 13, V052973, genotype 10I + 54L + 77I): 0.8 fold
Fold change in IC50 (Table 13, V052974, genotype 10I + 54L + 90M): 1.1 fold
Fold change in IC50 (Table 13, V052975, genotype 10I + 54L + 71V + 90M): 24.2 fold
Fold change in IC50 (Table 13, V052976, genotype 10I + 54L + 71V + 77I + 90M): 1.8 fold
Fold change in IC50 (Table 13, V053832, genotype 10I + 33F): 0.5 fold
Fold change in IC50 (Table 13, V053854, genotype 54L + 71V): 0.9 fold
Fold change in IC50 (Virco ID 214846, genotype 10I + 33F + 54V + 71V + 77I + 90M, vs mean IC50 of wild type laboratory HIV strain): 27.8 fold
Fold change in IC50 (Virco ID V021667, genotype 10I, vs mean IC50 of wild type laboratory HIV strain): 0.9 fold
Fold change in IC50 (Virco ID V030496, genotype 10I + 77I, vs mean IC50 of wild type laboratory HIV strain): 0.3 fold
Fold change in IC50 (Virco ID V048876, genotype 33F + 54V + 77I + 90M, vs mean IC50 of wild type laboratory HIV strain): 1.5 fold
Fold change in IC50 (Virco ID V048877, genotype 10I + 33F + 77I + 90M, vs mean IC50 of wild type laboratory HIV strain): 1.5 fold
Fold change in IC50 (Virco ID V048880, genotype 10I + 33F + 77I + 90M, vs mean IC50 of wild type laboratory HIV strain): 2.7 fold
Fold change in IC50 (Virco ID V052940, genotype 71V, vs mean IC50 of wild type laboratory HIV strain): 0.8 fold
Fold change in IC50 (Virco ID V052942, genotype 10I + 71V, vs mean IC50 of wild type laboratory HIV strain): 0.8 fold
Fold change in IC50 (Virco ID V052943, genotype 10I + 90M, vs mean IC50 of wild type laboratory HIV strain): 1.1 fold
Fold change in IC50 (Virco ID V052944, genotype 10I + 90M, vs mean IC50 of wild type laboratory HIV strain): 0.7 fold
Fold change in IC50 (Virco ID V052946, genotype 71V + 90M, vs mean IC50 of wild type laboratory HIV strain): 1.4 fold
Fold change in IC50 (Virco ID V052947, genotype 10I + 77I + 90M, vs mean IC50 of wild type laboratory HIV strain): 3.9 fold
Fold change in IC50 (Virco ID V052948, genotype 10I + 71V + 90M, vs mean IC50 of wild type laboratory HIV strain): 4.8 fold
Fold change in IC50 (Virco ID V052949, genotype 10I + 71V + 77I + 90M, vs mean IC50 of wild type laboratory HIV strain): 2.1 fold
Fold change in IC50 (Virco ID V052950, genotype 33F, vs mean IC50 of wild type laboratory HIV strain): 1.2 fold
Fold change in IC50 (Virco ID V052951, genotype 33F + 77I, vs mean IC50 of wild type laboratory HIV strain): 0.4 fold
Fold change in IC50 (Virco ID V052953, genotype 10I + 33F + 77I, vs mean IC50 of wild type laboratory HIV strain): 1.2 fold
Fold change in IC50 (Virco ID V052954, genotype 33F + 77I + 90M, vs mean IC50 of wild type laboratory HIV strain): 1.7 fold
Fold change in IC50 (Virco ID V052955, genotype 33F + 71V + 90M, vs mean IC50 of wild type laboratory HIV strain): 20.4 fold
Fold change in IC50 (Virco ID V052957, genotype 10I + 33F + 54V + 90M, vs mean IC50 of wild type laboratory HIV strain): 1.6 fold
Fold change in IC50 (Virco ID V052958, genotype 10I + 33F + 54V + 77I + 90M, vs mean IC50 of wild type laboratory HIV strain): 1.0 fold
Fold change in IC50 (Virco ID V052959, genotype 10I + 33F + 54V + 77I + 90M, vs mean IC50 of wild type laboratory HIV strain): 1.0 fold
Fold change in IC50 (Virco ID V052960, genotype 10I + 33F + 54V + 71V + 90M, vs mean IC50 of wild type laboratory HIV strain): 21.8 fold
Fold change in IC50 (Virco ID V052961, genotype 54V, vs mean IC50 of wild type laboratory HIV strain): 1.0 fold
Fold change in IC50 (Virco ID V052962, genotype 10I + 54V, vs mean IC50 of wild type laboratory HIV strain): 0.9 fold
Fold change in IC50 (Virco ID V052963, genotype 54V + 77I + 90M, vs mean IC50 of wild type laboratory HIV strain): 1.3 fold
Fold change in IC50 (Virco ID V052964, genotype 54V + 71V + 90M, vs mean IC50 of wild type laboratory HIV strain): 1.4 fold
Fold change in IC50 (Virco ID V052965, genotype 10I + 54V + 77I + 90M, vs mean IC50 of wild type laboratory HIV strain): 6.3 fold
Fold change in IC50 (Virco ID V052966, genotype 10I + 54V + 71V + 90M, vs mean IC50 of wild type laboratory HIV strain): 28.6 fold
Fold change in IC50 (Virco ID V052967, genotype 10I + 54V + 71V + 77I + 90M, vs mean IC50 of wild type laboratory HIV strain): 0.6 fold
Fold change in IC50 (Virco ID V053358, genotype 33F + 54V + 77I + 90M, vs mean IC50 of wild type laboratory HIV strain): 1.3 fold
Fold change in IC50 (Virco ID V053831, genotype 33F + 54V, vs mean IC50 of wild type laboratory HIV strain): 1.0 fold
Fold change in IC50 (Virco ID V053832, genotype 10I + 33F, vs mean IC50 of wild type laboratory HIV strain): 0.5 fold
